In series [1] the test system is S. typhimurium cell membrane. Nature of the series: Crystal violet uptake after treatment with lethal dose of SMs. In kind it is cell-based. As to conditions: 1 hr; for reduction of crystal violet uptake: compared to 1% DMSO control. As for the experimental part:
To further support the observation obtained with confocal microscopy, the same samples were analyzed using scanning electron microscopy (SEM; FIG. 13P-S). […] Smaller outer membrane vesicles of approximately 20 to 70 nm were also observed covering the surface of the bacteria. […] These conclusions were further supported by measuring the crystal violet uptake and leakage of materials assessed at 260 nm after 1 hr of treatment with a lethal dose of SMs.

In series [2] the test system is S. typhimurium WT internalized in Caco-2 cells. Nature of the series: S. typhimurium intracellular survival in infected Caco-2 cells. In kind it is cell-based. The conditions noted are these: S. Typhimurium-infected Caco-2 cells, 24 hrs treatment. As for the experimental part:
Effect of the four SMs on S. typhimurium intracellular survival in cells lines: The ability of four SMs to clear S. typhimurium WT […] was evaluated using three cell lines (Caco-2 cells, HD11, and THP-1 cells). The Salmonella intracellular survival as assessed as described (13). A multiplicity of infection “MOI” of 10 was used. Infected cells were treated with 1 μl of SMs (final concentration ranged between 100 μM and 6.25 μM) at 37° C. for 24 hrs in humidified, 5% CO2 incubator. Following incubation, cells were washed once with 150 μl of 1×PBS, lysed with 0.1% Triton-100X, serial ten-fold diluted in 1×PBS, and plated on agar plate. Plates were incubated at 37° C. for 24 hrs to determine the intracellular survival. Cells not infected and not treated, and cells infected and treated with 2% DMSO were used as controls.

The next series relates to Kan^R S. typhimurium. The series can be described thus: Salmonella clearance in one-week-old infected broiler chickens. The conditions noted are these: 100 μg orally twice daily for 5 days; for reduction in Salmonella population inside the ceca: compared to DMSO group; for Chicken tissues positive for Salmonella: Ceca / Chicken tissues positive for Salmonella: Livers / Chicken tissues positive for Salmonella: Spleens: n = 10. In kind it is in vivo. As for the experimental part:
FIG. 7. Experimental design of the Salmonella clearance study in one-week-old infected broiler chickens. Salmonella-free chickens were orally infected with 10^4 S. typhimurium units per chickens (0 DPI). After confirmation of the intestinal colonization by Salmonella (1 DPI), ten chicks per treatment were treated twice a day for five days with 100 μg of SMs (3 DPI to 7 DPI). Ceca, liver, and spleen tissues were collected at 8 DPI. DPI: days post-inoculation.
Effect of selected SMs on the survival of S. typhimurium in one-week-old SFP chickens: One-week-old Salmonella-free chickens were orally inoculated with approximately 10^4 Kan^R S. typhimurium bacteria. A rectal swab was collected to confirm the intestinal colonization by Salmonella at one day post-inoculation (DPI). At 3 DPI, chickens were treated orally twice a day for five days with a specific treatment of approximately 920 μg/kg SMs per dose. Details of the treatment groups are described in Table 7. Feeders were taken off one hour before the treatment and put back one hour after the treatment. Following the five days of treatment, chickens were euthanized and tissues were aseptically collected (ceca, liver, and spleen). One of the cecum was immediately stored at −80° C. after sampling for microbiota studies. Ceca, spleens, and livers tissues were suspended in 2, 3, and 5 mL of 1×PBS respectively and grinded. 1 mL of the undiluted homogenized tissue mix was enriched in 9 mL of tetrathionate broth (TTB) medium for 18 hrs at 37° C. The rest of the homogenized tissues were serial ten-fold diluted, plated on XLT4 agar plate supplemented with 50 μg/ml kanamycin, and incubated for 36 hrs at 37° C. Bacterial counts were compared with the DMSO control group.

A further series relates to Salmonella Newport. Nature of the series: MIC and MBC dose-response, serotype Newport. The conditions noted are these: MIC identical to MBC. The class given is cell-based, Salmonella enterica. As for the experimental part: (§1) An overnight Salmonella suspension was normalized at 0.05 OD600 (approximately 3.5×10^7 CFU/ml) with an adjusted M9 minimal broth medium (12.7 mM Na2HPO4 7H2O; 22 mM KH2PO4; 18.7 mM NH4Cl; 2 mM MgSO4; 0.1 mM CaCl2; 0.4% glucose; 0.05% casamino acids). 100 μL of the suspension plus 2 μl of SMs (200 μM) were transferred into each well of a sterile, non-treated, flat bottom 96-well plate. Bacteria alone (negative control, NC), 2% DMSO plus bacteria (DMSO control), 20 μg/ml chloramphenicol or 50 μg/ml kanamycin plus bacteria (positive controls, PC), and M9 medium only were used as control. Plates were incubated in a Sunrise™ Tecan kinetic microplate reader for 12 hrs at 37° C. and the optical density (OD) was measure at 600 nm as described above. Percentage of inhibition=(OD600 SM−OD600 NC)/(OD600 NC)×100. […] Cultures from wells showing no turbidimetric increase were transferred onto a XLT4 agar plate. Plates were incubated at 37° C. for 36 hrs.
(§2) Screens were performed as described in the primary screen. The lowest SM concentration with a static effect was considered as the minimal inhibitory concentration (MIC) and the lowest SM concentration with a cidal effect was considered as the minimal bactericidal concentration (MBC).

The next series deals with Salmonella Anatum. Nature of the series: MIC and MBC dose-response, serotype Anatum. As to conditions: MIC identical to MBC. The class given is cell-based, Salmonella enterica. The method, then: as §1, §2

Values after ≈ are worked out from the molar mass of the structure shown.

On to `CC1CCC(C(C)C)C(OC(=O)Cn2c[n+](CC(=O)OC3CC(C)CCC3C(C)C)c3ccccc32)C1.[Cl-]` (stereo not drawn) [SM1, 1,3-bis{2-[(2-isopropyl-5-methylcyclohexyl)oxy]-2-oxoethyl}-1H-3,1-benzimidazol-3-ium chloride], for which the “reduction of crystal violet uptake” value in series [1] was found to be 1.88 fold. Moreover, the “MBC (μm), Caco-2 cells” value in series [2] came to 25 µM. Also, in the series on Kan^R S. typhimurium, the “reduction in Salmonella population inside the ceca” value is on record as “did not show any reduction”, the “Chicken tissues positive for Salmonella: Ceca” value (“Chicken tissues positive … Ceca” below) is 90%, the “Chicken tissues positive for Salmonella: Livers” value is recorded as 40% and the “Chicken tissues positive for Salmonella: Spleens” value was found to be 50%. Also, the “MIC/MBC” value in the series on Salmonella Newport came to 100 µM. Besides, in the series on Salmonella Anatum, the “MIC/MBC” value is 100 µM.

Take `CCCCCCCCCCCCCCCC[n+]1ccn(CC#N)c1.[Cl-]` [SM3, 1-(cyanomethyl)-3-hexadecyl-1H-imidazol-3-ium chloride]: the “reduction of crystal violet uptake” value in series [1] came to 4.46 fold. Besides, in series [2], the “MBC (μm), Caco-2 cells” value stood at 50 µM. In the series with Kan^R S. typhimurium, the “reduction in Salmonella population inside the ceca” value is reported as “did not show any reduction”, the “Chicken tissues positive … Ceca” value came to 80%, the “Chicken tissues positive for Salmonella: Livers” value is on record as 60% and the “Chicken tissues positive for Salmonella: Spleens” value turned out to be 50%. Also, in the series on Salmonella Newport, the “MIC/MBC” value stood at 50 µM. Also, the “MIC/MBC” value against Salmonella Anatum came out at 25 µM.

`CCCCCCCCCCCCCCCCn1c[n+](C)c2ccccc21.[Br-]` [SM4, 1-hexadecyl-3-methyl-1H-3,1-benzimidazol-3-ium bromide]: in series [1], the “reduction of crystal violet uptake” value amounted to 2.01 fold. Besides, the “MBC (μm), Caco-2 cells” value in series [2] came out at 25 µM. Also, in the series on Kan^R S. typhimurium, the “Chicken tissues positive … Ceca” value is on record as 40%, the “Chicken tissues positive for Salmonella: Livers” value is 30% and the “Chicken tissues positive for Salmonella: Spleens” value turned out to be 20%. For the same compound, in the series with Salmonella Newport, the “MIC/MBC” value worked out at 25 µM. The “MIC/MBC” value with Salmonella Anatum is 10 µM.

`CCOc1cc(/C=N/N=C(N)N)ccc1OCc1ccc(Cl)cc1` [SM5, N″-{4-[(4-chlorobenzyl)oxy]-3-ethoxybenzylidene}carbonohydrazonic diamide]: the “increase in permeability (crystal violet uptake)” value in series [1] (compared to 1% DMSO-treated cells) came out at 2.32 fold. Also, the “MBC (μm), Caco-2 cells” value in series [2] is 12.5 µM (≈ 4.34 µg/mL). In addition, in the series on Kan^R S. typhimurium, the “Chicken tissues positive … Ceca” value is listed as 70%, the “Chicken tissues positive for Salmonella: Livers” value stood at 40% and the “Chicken tissues positive for Salmonella: Spleens” value was 30%. For the same compound, in the series on Salmonella Newport, the “MIC/MBC” value is 50 µM (≈ 17.3 µg/mL). Moreover, in the series on Salmonella Anatum, the “MIC/MBC” value stood at 50 µM (≈ 17.3 µg/mL).

Values taken from US12161630B2, “Methods to control infection using new generation small molecule growth inhibitors” (priority 2017, dated 2024).
